Test system: H9c2 cells
Experiment: Cell viability assay (MTT) of H9c2 cells in hypoxia-reoxygenation model
Format: cell-based, rat
Conditions: added 1 hour before hypoxia, 6 h hypoxia, 12 h reoxygenation, compounds 1, 3, 10 μM, metformin 10, 30, 100 μM, compared to the sham group, FIG. 1(b)
Description: Cell Viability Assay of H9c2 Cell in Hypoxia-Reoxygenation Model
Rat embryonic ventricular myoblast cell line, H9c2, are cultured in a DMEM medium supplemented with 10% fetal bovine serum (FBS), penicillin (10 U/mL), streptomycin (100 μg/mL) and amphotericin B (0.25 μg/mL) in 37° C. humidified 5% carbon dioxide (CO2) incubator. When the plate becomes confluent, maintain the culture at a 1:4 subculture split.
(1) H9c2 cells are cultured on a 60 mm plate (6×10^5 cells/plate) containing 10% FBS DMEM (high glucose DMEM) for 24 hours. The medium is replaced with DMEM with no serum for the starvation. At the same time, a medium containing DMEM with no glucose and no serum is adjusted to pH 6.8 and placed into a hypoxia chamber (95% N2 and 5% CO2, 37° C.) where the oxygen partial pressure is controlled to be less than 2% for a pretreatment for 24 hours. […]
Please refer to FIGS. 1(a) and 1(b), which are diagrams showing the effects of the compounds in the present invention and metformin on the viability of cells treated by the hypoxia-reoxygenation. The results are represented by the absorbance (OD) values of the hypoxia-reoxygenation treated group (IR OD)/the OD values of the control group (control OD) in FIG. 1(a) and the OD values of the drug-treated group (drug OD)/the OD values of the sham group (sham OD).

COc1cc(/C=C/C(=O)OCC2OC(Oc3ccc(C[C@H]4CO[C@H](c5ccc(O)c(OC)c5)[C@H]4CO)cc3OC)C(O)C(O)C2O)ccc1O (stereo partly drawn) [RS-47, lariciresinol 4′-(6″-O-feruloyl-β-D-glucopyranoside)] was tested, and the “viability of the cells treated with the hypoxia-reoxygenation (drug OD/sham OD)” value was “significantly increased”.

With CN(C)C(=N)N=C(N)N [metformin] the “viability of the cells treated with the hypoxia-reoxygenation (drug OD/sham OD)” value was “significantly increased”.

Reference: patent publication US20120283200A1, “PHARMACEUTICAL COMPOSITION AND METHOD FOR PREVENTING OR TREATING CHRONIC HEART DISEASE” (CHINA MEDICAL UNIVERSITY, priority 2011, published 2012)
